Patent US20250114511A1, “BLOOD PERFUSION DEVICE TO REDUCE SECONDARY INFECTION IN HOSPITAL” (SEOUL NATIONAL UNIVERSITY R&DB FOUNDATION, priority 2022, published 2025)
“Also recorded” adds a separate entry of the source. Like-named read-outs stand apart in the source and are kept apart here.

How the values were obtained:
[1] = test system: PMNs isolated from healthy volunteers; test: Chemotaxis to 100 nM fMLF of healthy volunteer PMNs exposed to septic shock patient plasma; format: cell-based, human; details: 10 μM CsH
Experimental: The effect of bead-anti-mtFP mixture treatment on PMN chemotaxis rescue was analyzed. PMS was isolated from blood samples obtained from healthy volunteers and exposed to untreated plasma from septic shock patients for 30 minutes in a 10-rpm rotator at 37° C. […] In order to estimate the capacity of non-FPR1-mediated PMN chemotaxis, separate PMNs exposed to bead anti-mtFP mixture-treated plasma were pretreated with 10 μM CsH 15 minutes prior to the chemotaxis experiment.
The inventors of the present disclosure investigated the chemotactic restoration effect of the anti-mtFP cocktail on PMNs by exposing PMNs from healthy volunteers to the plasma of septic shock patients treated with the anti-mtFP cocktail and then comparing PMN chemotaxis with plasma that had not received the anti-mtFP cocktail treatment.

[2] = test system: human polymorphonuclear cells (PMN); details: previous studies of the inventors; cited from earlier work
[3] = test system: PMNs isolated from septic shock patients with secondary infection; test: Chemotaxis to 100 nM fMLF of PMNs from septic shock patients with secondary infection exposed to their own plasma; format: cell-based, human; details: 50 pg/mL recombinant LTB4 added to bead-anti-mtFP mixture treated plasma, 90 minutes
FPR1 = FPR1 expression on PMN membranes by flow cytometry; format: cell-based, human; details: 100 nM ND6 for 30 minutes
Experimental: FPR1 expression on PMN membranes and the amount of CaMK2 in the homogenized PMN pellet were also detected by flow cytometry. In order to detect FPR1 on PMN membranes, PMNs (1.0×10^6 in 200 μL) were incubated with FITC-conjugated anti-human FPR1 antibody (2 μL, FAB3744F, R&D Systems, Minneapolis, MN) for 30 minutes at room temperature in the dark. FITC-conjugated mouse IgG2a, κ isotype control antibody (400210, BioLegend, San Diego, CA) was used as a negative control. After washing twice, fluorescence was measured. APC-conjugated anti-CaMK2 antibody (2 μL, ab225178, Abcam, Cambridge, UK) was used to detect the amount of CaMK2 in 200 μL of homogenized PMN pellet obtained by homogenization of 1.0×10^6/l mL PMN for 30 seconds at 4° C. and centrifugation at 20,000 g for 10 minutes. FPR1 expression in PMN membranes and the amount of CaMK2 in homogenized PMN pellets were quantified as mean fluorescence intensity (MFI) by using FlowJo version 10.0 (FlowJo, LLC, Ashland, OR). At least three independent experiments were performed.

[4] = target: T1, formyl peptide receptor 1 (FPR1) (Homo sapiens, UniProt P21462); test: PMN intracellular calcium mobilization (ER calcium depletion and calcium influx, fura2-AM)
T1 sequence (P21462 1-350): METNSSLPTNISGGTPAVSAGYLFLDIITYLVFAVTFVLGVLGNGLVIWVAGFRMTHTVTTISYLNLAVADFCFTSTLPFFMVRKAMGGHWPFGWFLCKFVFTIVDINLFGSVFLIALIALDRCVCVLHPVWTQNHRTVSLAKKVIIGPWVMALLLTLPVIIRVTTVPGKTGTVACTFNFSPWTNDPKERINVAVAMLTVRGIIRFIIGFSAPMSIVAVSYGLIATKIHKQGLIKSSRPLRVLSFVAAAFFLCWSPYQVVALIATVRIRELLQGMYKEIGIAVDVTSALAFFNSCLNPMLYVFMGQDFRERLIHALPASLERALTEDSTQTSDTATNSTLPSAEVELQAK
Experimental: Calcium mobilization within PMN cells was measured according to the following method. The separated PMN pellet was resuspended in pH 7.4 hydroxyethyl piperazine ethane sulfonic acid (HEPES) buffer solution. This HEPES buffer solution includes 20 mM HEPES, 140 mM NaCl, 5 mM potassium chloride (KCl), 1 mM magnesium chloride (MgCl2), 1 mM calcium chloride (CaCl2)), 10 mM glucose and 0.1% bovine serum albumin (BSA, A2058 Sigma-Aldrich). PMNs were loaded with fura2-AM (F1221, Thermo Fisher, Waltham, MA) for 45 minutes at 37° C.
Fluorescence was measured at 505 nm with 340/380 nm dual-wavelength excitation at 37° C. by using a spectrofluorometer (FluoroMax Plus-C, Horiba, Ltd., Kyoto, Japan). For the quantitative measurement of endoplasmic reticulum (ER) calcium depletion, PMNs were centrifuged at 200 g for 10 minutes at 4° C. PMN pellets were then resuspended in a calcium-free HEPES buffer solution including 0.3 mM ethylene glycol-bis(2-aminoethylether)-N,N,N′,N′-tetraacetic acid (EGTA, E3889, Sigma-Aldrich, St. Louis, MO), and stimulated with ND6 and fMLF or with ND6 alone. 0.1% dimethyl sulfoxide (DMSO) was added to the medium without ND6 or fMLF. After endoplasmic reticulum calcium was depleted, 1.8 mM CaCl2) was added to induce cytoplasmic calcium influx. Endoplasmic reticulum calcium depletion and calcium influx were assessed by measuring the 340 nm/380 nm ratio and quantified as AUC over 150 seconds (AUC150) and AUC over 100 seconds (AUC100), respectively. […]
In order to investigate which steps of intracellular calcium mobilization stimulated by FPR1 agonists directly correlate with PMN chemotaxis, the inventors of the present disclosure quantitatively measured the amounts of endoplasmic reticulum (ER) calcium depletion and subsequent calcium influx into the cytoplasm in isolated human PMNs obtained from healthy volunteers. […] The area under the curve (AUC) of ER calcium depletion over 150 seconds was calculated to quantify the amount of ER calcium depletion stimulated by ND6 (AUC150 primary) and fMLF (AUC150 secondary), respectively. […]

[5] = test system: human polymorphonuclear cells (PMN)
Experimental: PMN chemotaxis was assessed by using multiScreen 96-well plates consisting of a 3-μm pore membrane (MAMIC3S10, Merck Millipore, Darmstadt, Germany). After preplanned treatment with ND6 or patient plasma, isolated human PMNs were centrifuged at 200 g for 10 minutes at 4° C. Afterwards, the PMN pellet was resuspended in Dulbecco's modified Eagle medium (DMEM, 11885-084, Thermo Fisher) containing 10% fetal bovine serum (FBS, F2442, Sigma-Aldrich). Before use, FBS was inactivated by heating at 56° C. for 1 hour. PMNs were placed in the upper chamber of the plate (0.1×10^6 PMNs at 75 μL per well), and medium containing 100 nM fMLF was placed in the lower chamber (150 μL per well). In medium without ND6 or fMLF, 0.1% DMSO was added.
Plates were incubated for 60 minutes in an incubator at 37° C. with 5% carbon dioxide (CO2). […] Afterwards, the contents were transferred to a 96-well plate, and fluorescence was measured at an excitation/emission wavelength of 480/520 nm with a cut-off of 515 nm. The number of migrated PMNs was calculated by using a standard curve derived from known PMN numbers. […]
After exposure to 100 nM ND6 for 30 minutes, PMNs were centrifuged at 220 g for 10 minutes at 4° C., and the supernatant was discarded. […] PMN chemotaxis at 30 and 90 minutes was measured as the number of PMNs migrated during 60-minute incubation between 30 and 90 minutes and 90 and 150 minutes, respectively.

## C/C=C/C[C@@H](C)[C@@H](O)[C@H]1C(=O)N[C@@H](CC)C(=O)N(C)CC(=O)N(C)[C@@H](CC(C)C)C(=O)N[C@@H](C(C)C)C(=O)N(C)[C@@H](CC(C)C)C(=O)N[C@@H](C)C(=O)N[C@H](C)C(=O)N(C)[C@@H](CC(C)C)C(=O)N(C)[C@@H](CC(C)C)C(=O)N(C)[C@H](C(C)C)C(=O)N1C [CsH, cyclosporine H]
[1]
  chemotaxis of CsH-treated PMNs versus CsH-free PMNs exposed to untreated plasma: not significantly different

## N-formyl-methionine-leucine-phenylalanine [fMLF]
[2]
  most potent concentration to induce FPR1-mediated PMN chemotaxis: 100 nM

## CCCCC/C=C\C[C@@H](O)/C=C/C=C/C=C\[C@@H](O)CCCC(=O)O [recombinant LTB4, leukotriene B4]
[3]
  restoration of PMN chemotaxis compared to PMN exposed to untreated plasma: effectively restored PMN chemotaxis
[3]; listed as recombinant leukotriene B4 (LTB4)
  restoration of PMN chemotaxis compared to PMN exposed to untreated plasma: significantly restored PMN chemotaxis

## N-formyl-methionine-methionine-tyrosine-alanine-leucine-phenylalanine [ND6]
FPR1
  FPR1 expression in PMN membranes (MFI): reduced FPR1 expression
[4]; 100 nM ND6 for 30 minutes or more
  ER calcium depletion and calcium influx in response to 100 nM fMLF: inhibited; also recorded: did not completely inhibit
[4]; 100 nM, 10 nM, 5 nM ND6, then 100 nM fMLF
  inhibition of fMLF-stimulated secondary ER calcium depletion and subsequent calcium influx: dose-dependently inhibited
[5]; 100 nM ND6 for 30 minutes
  PMN chemotaxis in response to 100 nM fMLF: inhibited
[5]; ND6-treated PMNs, 100, 10, 5 nM
  PMN chemotaxis in response to 100 nM fMLF: dose-dependently inhibited
